Measured values as given in the supplement of paper PMC10883282.
± gives the standard deviation of the averaged measurements.

Tested on: HS729
Assay: relative viability vs DMSO control (72 h) (fraction); higher = more viable cells
Outline: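 A 5 µM positive control and 0.1% DMSO vehicle ran alongside sarcoma cell lines seeded in 384-well plates to reach 80–90% confluence. Serially diluted compound, 2.5 µl from source plates of 10 mM to 0.0002 mM, was added after 24 h, and the plates were held 72 h at 37 °C, 5% CO2. Relative viability was worked out from ATPLite readings as percent growth averaged over up to triplicate wells. The values were rescaled so that 1 is full and 0 is none.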

Row | SMILES | relative viability (0.00017 µM) | relative viability (0.00051 µM) | relative viability (0.00152 µM) | relative viability (0.00457 µM) | relative viability (0.01372 µM) | relative viability (0.04115 µM) | relative viability (0.1235 µM) | relative viability (0.3704 µM) | relative viability (1.111 µM) | relative viability (3.333 µM) | relative viability (10 µM)
1 | COc1cc2/c(=N/c3ccc(Br)cc3F)nc[nH]c2cc1OCC1CCN(C)CC1 [Vandetanib] | 0.915 ± 0.04 | 0.896 ± 0.083 | 0.899 ± 0.031 | 0.8994 ± 0.0041 | 0.871 ± 0.022 | 0.843 ± 0.047 | 0.857 ± 0.026 | 0.834 ± 0.068 | 0.746 ± 0.055 | 0.663 ± 0.03 | 0.028 ± 0.0075
2 | CCCS(=O)(=O)Nc1ccc(F)c(C(=O)c2c[nH]c3ncc(-c4ccc(Cl)cc4)cc23)c1F [Vemurafenib] | 0.9411 ± 0.0078 | 0.97 ± 0.024 | 0.949 ± 0.051 | 0.949 ± 0.05 | 0.962 ± 0.021 | 0.915 ± 0.03 | 0.955 ± 0.031 | 0.908 ± 0.013 | 0.9276 ± 0.0087 | 0.856 ± 0.065 | 0.73 ± 0.016
3 | C[C@@H](c1ccc2nccn2c1)n1nnc2ncc(-c3cnn(C)c3)nc21 [Volitinib] | 0.947 ± 0.029 | 0.978 ± 0.013 | 0.978 ± 0.031 | 1.02 ± 0.043 | 0.938 ± 0.021 | 0.952 ± 0.066 | 0.955 ± 0.061 | 1 ± 0.053 | 1 ± 0.08 | 0.97 ± 0.034 | 1.03 ± 0.042
4 | C=CC(=O)N1CCC([C@@H]2CCNc3c(C(N)=O)c(-c4ccc(Oc5ccccc5)cc4)nn32)CC1 [Zanubrutinib] | 1.06 ± 0.046 | 1.07 ± 0.06 | 1.05 ± 0.061 | 1.05 ± 0.072 | 1.06 ± 0.082 | 1.04 ± 0.099 | 1.06 ± 0.062 | 1.03 ± 0.095 | 0.961 ± 0.094 | 1.02 ± 0.074 | 0.873 ± 0.077
